{"source": "patent US20090258385A1", "about": "“METHOD OF ANALYZING CELLS BY FLOW CYTOMETRY, USE OF AN ANTIOXIDANT AND/OR FREE RADICAL-SCAVENGING AGENT IN SUCH A METHOD AND INCUBATION BUFFER COMPRISING AN ANTIOXIDANT AND/OR FREE RADICAL-SCAVENGING AGENT” (Hopitaux de Paris, priority 2008, published 2009)", "key": {"[1]": {"system": "neutrophilic polynuclear cells labeled with anti-CD45 antibody conjugated with APC tandem", "test": "percentage of decoupling of APC tandem on immunolabeled neutrophilic polynuclear cells by flow cytometry", "assay_type": "cell-based, human", "excerpt": "(§1) The terms “percentage of decoupling”, “% decoupling”, “% decoupling APC vs APC-Cy7”, “% decoupling APC vs APC-H7” are used in the preceding text and in the text which follows and in the accompanying figures to denote the ratio:\n(§2) [Number of cells which, although having been labeled with an APC tandem, emit fluorescence into the APC channel (and not into the channel of the APC tandem used)]/[total number of cells which have been labeled with the APC tandem, regardless of the channel into which they emit],\n(§3) this ratio being multiplied by 100.\n(§4) For each immunolabeling experiment, the cells were mixed and subjected to flow cytometry analysis on a Becton Dickinson FACSCanto II apparatus. From 10,000 to 50,000 events were acquired per test. The singlet cells were selected by a commonly used cell sorting procedure: intersection of the three windows (P1, P2 and P3) of the biparametric histograms.\n(§5) For each type of cells, the percentage of decoupling was calculated as previously described using the BD […] software.\n(§6) The results are represented in FIGS. 25 and 26."}, "[2]": {"system": "lymphocytes labeled with anti-CD45 antibody conjugated with APC tandem", "test": "percentage of decoupling of APC tandem on immunolabeled lymphocytes by flow cytometry", "assay_type": "cell-based, human", "quoted_text": "The positivity threshold was determined in the APC channel at the time T0 and related to the time T30. The percentage of “decoupled” cells was expressed as the ratio of the total number of both APC- and APC tandem-positive cells to the total APC tandem-positive lymphocytes."}, "monocytes": {"system": "monocytes", "procedure": "(§7) Aliquots of human peripheral blood (containing 500,000 leukocytes) were incubated in the lysis buffer and then washed three times with 1×PBS supplemented with 2.5% FBS. The cells (500,000) were then immuno-labeled with 5 μl of each of the desired antibodies conjugated either with the desired APC tandem or with APC alone in 100 μl of incubation buffer for 20 min at room temperature, and washed three times with the PBS/FBS solution and resuspended in 200 μl of PBS/FBS solution.\n(§8) The dead cells were labeled for their exclusion during analysis of the data acquired by flow cytometry using the intercalating agent 7-aminoactinomycin-D (7-AAD) from SIGMA-ALDRICH."}, "[3]": {"system": "neutrophilic polynuclear cells", "procedure": "as §7, §8"}, "[4]": {"system": "monocytes labeled with anti-CD45 antibody conjugated with APC tandem", "test": "percentage of decoupling of APC tandem on immunolabeled monocytes by flow cytometry", "assay_type": "cell-based, human", "excerpt": "as §1, §2, §3, §4, §5, §6"}, "[5]": {"test": "decoupling / signal impairment of APC tandem attached to beads (no cells)", "source_text": "For that, they analyzed the stability of the APC tandem fluorochromes attached to lymphocytes and compared it to the stability of these same APC tandems attached to beads. This comparison makes it possible to determine whether or not it is the APC tandem which is degraded, regardless of the context in which it is used, or if the APC tandem is only degraded in the presence of cells.\nThe beads used in these experiments were beads Compbeads® from Becton Dickinson.\nThe lymphocytes, like the beads, were labeled with anti-CD45 antibodies conjugated with the APC-Cy7 tandem fluorochrome or with the APC-H7 tandem fluorochrome."}, "cells": {"system": "cells", "test": "toxicity to cells at the concentrations used", "assay_type": "cell-based"}, "lymphocytes": {"system": "lymphocytes", "test": "viability and morphology of lymphocytes", "assay_type": "cell-based, human"}, "[6]": {"conditions": "neutrophilic polynuclear cells, H2O2"}}}
{"smiles": "OO", "note": "[H2O2, hydrogen peroxide]", "values": [{"measurement": "effect on decoupling compared with lymphocytes", "setting": "[1]; [6]", "result": "comparable role"}, {"measurement": "effect on percentage of decoupling", "setting": "[2]; anti-CD45 APC-Cy7, 0.01 mM H2O2, 20 to 60 minutes", "result": "does not modify"}, {"measurement": "effect on percentage of decoupling", "setting": "[2]; anti-CD45 APC-Cy7, 0.1 mM H2O2, 20 to 60 minutes", "result": "increased"}, {"measurement": "effect on viability of the cells", "setting": "monocytes; H2O2", "result": "without any effect on the viability"}, {"measurement": "effect on viability of the cells", "setting": "[3]; [6]", "result": "without any effect on the viability"}, {"measurement": "effect on decoupling compared with lymphocytes", "setting": "[4]; H2O2", "result": "comparable role"}, {"measurement": "decoupling of antibodies conjugated with APC-Cy7 attached to beads", "setting": "[5]; beads, over time, H2O2", "result": "could induce the decoupling"}]}
{"smiles": "[N-]=[N+]=[N-]", "note": "[NaN3, sodium azide]", "values": [{"measurement": "effect on cell viability", "setting": "monocytes; NaN3", "result": "without affecting cell viability"}, {"measurement": "effect on cell viability", "setting": "[3]; neutrophilic polynuclear leukocytes, NaN3", "result": "without affecting cell viability"}]}
{"smiles": "O=C1O[C@H]([C@@H](O)CO)C(O)=C1O", "note": "[vitamin C, L-ascorbic acid]", "values": [{"measurement": "concentration at which a sufficient decrease of the percentage of decoupling is obtained", "setting": "[1]; neutrophilic polynuclear cells", "result": 0.25, "unit": "mM"}, {"measurement": "concentration up to which the decrease of decoupling exists", "setting": "[1]; neutrophilic polynuclear cells", "result": "≤ 10", "unit": "mM"}, {"measurement": "effect on percentage of decoupling over time", "setting": "[1]; neutrophilic polynuclear leukocytes, anti-CD45 APC-Cy7, 1 mM vitamin C, room temperature, monitored 1 hour", "result": "strongly inhibits"}, {"measurement": "effect on percentage of decoupling over time", "setting": "[2]; anti-CD45 APC-Cy7, 1 mM vitamin C, room temperature, monitored 1 hour", "result": "strongly inhibits"}, {"measurement": "effect on percentage of decoupling", "setting": "[2]; vitamin C 0.1 mM", "result": "only a reduced effect"}, {"measurement": "toxicity to cells", "setting": "cells", "result": "not toxic to cells"}, {"measurement": "concentration above which viability and morphology are modified", "setting": "monocytes", "result": "> 10", "unit": "mM"}, {"measurement": "concentration above which cells begin to undergo a decrease in viability", "setting": "[3]; neutrophilic polynuclear cells", "result": "Above 10 mM"}, {"measurement": "concentration above which cells begin to undergo morphological impairment", "setting": "[3]; neutrophilic polynuclear cells", "result": "Above 4 mM"}, {"measurement": "concentration above which morphology and viability are modified", "setting": "lymphocytes", "result": "above 10 mM"}, {"measurement": "concentration at which a sufficient decrease of the percentage of decoupling appears", "setting": "[4]", "result": 1, "unit": "mM"}, {"measurement": "concentration up to which the decrease of decoupling exists", "setting": "[4]", "result": "≤ 10", "unit": "mM"}, {"measurement": "effect on impairment of the APC tandem signal caused by H2O2", "setting": "[5]; beads Compbeads, H2O2 0 to 1 mM, 1 mM vitamin C", "result": "blocks the impairment of the signal"}]}
